“And” between values parts separate entries of the source, which are not always exact repeats. Equal values may be shown once.
These molecules were tested against T1, AHR (Homo sapiens, UniProt P35869) (assay: In vitro assay 1: antagonism in human cell line (AHR transactivation, firefly luciferase reporter, kynurenic acid prestimulated)). Details: AHR Antagonism Human IC50 [M].
T1 construct: U87 MG glioblastoma cells (ATCC #HTB-14) endogenously expressing AHR; endogenous in cells; host or cells: U87 MG glioblastoma cells (ATCC #HTB-14)
T1 sequence (P35869 11-848): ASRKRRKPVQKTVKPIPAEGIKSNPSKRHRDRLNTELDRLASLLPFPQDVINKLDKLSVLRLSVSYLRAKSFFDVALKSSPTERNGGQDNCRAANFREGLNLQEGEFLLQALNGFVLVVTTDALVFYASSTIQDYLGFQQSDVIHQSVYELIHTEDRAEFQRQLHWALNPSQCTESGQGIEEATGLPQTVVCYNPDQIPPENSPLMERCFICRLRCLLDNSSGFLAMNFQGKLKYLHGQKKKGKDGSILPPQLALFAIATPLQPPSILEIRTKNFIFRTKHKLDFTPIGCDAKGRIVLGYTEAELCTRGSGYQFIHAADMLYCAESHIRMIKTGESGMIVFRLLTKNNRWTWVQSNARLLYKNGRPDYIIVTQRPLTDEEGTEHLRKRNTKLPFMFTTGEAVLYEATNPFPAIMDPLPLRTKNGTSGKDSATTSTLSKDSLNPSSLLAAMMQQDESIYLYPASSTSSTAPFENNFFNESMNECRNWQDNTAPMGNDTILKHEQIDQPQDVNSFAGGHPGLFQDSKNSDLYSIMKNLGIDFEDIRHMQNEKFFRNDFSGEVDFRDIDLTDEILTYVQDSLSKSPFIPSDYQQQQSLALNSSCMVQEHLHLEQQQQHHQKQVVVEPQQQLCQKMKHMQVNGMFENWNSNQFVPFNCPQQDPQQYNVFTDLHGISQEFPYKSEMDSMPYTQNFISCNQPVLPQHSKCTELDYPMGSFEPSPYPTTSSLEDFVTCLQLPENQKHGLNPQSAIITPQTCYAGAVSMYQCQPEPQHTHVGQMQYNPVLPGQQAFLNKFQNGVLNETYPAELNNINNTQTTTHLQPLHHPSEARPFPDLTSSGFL
Format: cell-based
Protocol: Examples were tested in selected biological assays one or more times. When tested more than once, data are reported as either average values or as median values, wherein • the average value, also referred to as the arithmetic mean value, represents the sum of the values obtained divided by the number of times tested, and • the median value represents the middle number of the group of values when ranked in ascending or descending order. If the number of values in the data set is odd, the median is the middle value. If the number of values in the data set is even, the median is the arithmetic mean of the two middle values.
Transactivation assays were carried out in U87 MG glioblastoma cells (ATCC #HTB-14) endogenously expressing AHR. In addition the cells were stably transfected with an AHR inducible firefly luciferase reporter gene construct that carried AHR-binding sites (DRE) in its promoter and a renilla reporter gene construct with constitutively active promoter. Kynurenic acid is an endogenous AHR activating ligand and was used to prestimulate test cells prior to testing the antagonistic properties of compounds.
As positive inhibition control cells supplemented with 150 μM kynurenic acid were incubated in presence of 5 μM Staurosporin. Normalization was done by positive and negative controls.
Firefly luciferase and Renilla activity was determined by the DualGlo Luciferase Assay System (Promega, #2920). Renilla activity was used to assess toxic effects of compounds.

Structure (SMILES) | IC50
Cn1cc(-c2nc3c4ccccc4nc(NC4CCNC4=O)n3n2)cn1 (single isomer, unassigned) [Example 19, 3-{[2-(1-methyl-1H-pyrazol-4-yl)[1,2,4]triazolo[1,5-c]quinazolin-5-yl]amino}pyrrolidin-2-one] | > 2e-05 M
Cn1cc(-c2nc3c4ccccc4nc(NC4CNCCNC4=O)n3n2)cn1 (single isomer, unassigned) [Example 24, 6-{[2-(1-methyl-1H-pyrazol-4-yl)[1,2,4]triazolo[1,5-c]quinazolin-5-yl]amino}-1,4-diazepan-5-one] | > 4e-05 M
CCNC(=O)C(CC)Nc1nc2ccccc2c2nc(-c3cccc(OC(F)(F)F)c3)nn12 (single isomer, unassigned) [Example 320, N-ethyl-2-({2-[3-(trifluoromethoxy)phenyl][1,2,4]triazolo[1,5-c]quinazolin-5-yl}amino)butanamide] | 1.21e-06 M
O=C1NCCCC[C@H]1Nc1nc2ccccc2c2nc(-c3ccccc3)nn12 [Example 5, (3R)-3-[(2-phenyl[1,2,4]triazolo[1,5-c]quinazolin-5-yl)amino]azepan-2-one] | 3.4e-10 M
O=C1NCCCC[C@H]1Nc1nc2ccccc2c2nc(-c3ccccc3Cl)nn12 [Example 58, (3R)-3-{[2-(2-chlorophenyl)[1,2,4]triazolo[1,5-c]quinazolin-5-yl]amino}azepan-2-one] | 1.05e-08 M
O=C1NCCCC[C@H]1Nc1nc2ccccc2c2nc(-c3ccc(F)cc3)nn12 [Example 74, (3R)-3-{[2-(4-fluorophenyl)[1,2,4]triazolo[1,5-c]quinazolin-5-yl]amino}azepan-2-one] | 1.62e-10 M
COc1cccc(-c2nc3c4ccccc4nc(NC4CCN(C)C4=O)n3n2)c1 (stereo not drawn) [Example 80, 3-{[2-(3-methoxyphenyl)[1,2,4]triazolo[1,5-c]quinazolin-5-yl]amino}-1-methylpyrrolidin-2-one] | 2.53e-08 M
COc1cccc(-c2nc3c4ccccc4nc(NC4(C(N)=O)CCCC4)n3n2)c1 [Example 99, 1-{[2-(3-methoxyphenyl)[1,2,4]triazolo[1,5-c]quinazolin-5-yl]amino}cyclopentane-1-carboxamide] | 6.78e-08 M
COc1cccc(-c2nc3c4ccc(C)cc4nc(N[C@@H]4CCCCNC4=O)n3n2)c1 [Example 145, (3R)-3-{[2-(3-methoxyphenyl)-8-methyl[1,2,4]triazolo[1,5-c]quinazolin-5-yl]amino}azepan-2-one] | 3.17e-08 M
Cc1ccc2c(c1)nc(N[C@@H]1CCCCNC1=O)n1nc(-c3cnn(C)c3)nc21 [Example 147, (3R)-3-{[8-methyl-2-(1-methyl-1H-pyrazol-4-yl)[1,2,4]triazolo[1,5-c]quinazolin-5-yl]amino}azepan-2-one] | 7.53e-07 M
COc1cccc(-c2nc3c4ccc(F)cc4nc(N[C@H]4CCNC4=O)n3n2)c1 [Example 149, (3S)-3-{[8-fluoro-2-(3-methoxyphenyl)[1,2,4]triazolo[1,5-c]quinazolin-5-yl]amino}pyrrolidin-2-one] | 1.81e-07 M
O=C1NCCCC[C@H]1Nc1nc2cccc(Br)c2c2nc(-c3cccc(F)c3)nn12 [Example 163, (3R)-3-{[10-bromo-2-(3-fluorophenyl)[1,2,4]triazolo[1,5-c]quinazolin-5-yl]amino}azepan-2-one] | 2.14e-08 M
O=C1NCCCC[C@H]1Nc1nc2cccc(Cl)c2c2nc(-c3cccc(F)c3)nn12 [Example 167, (3R)-3-{[10-chloro-2-(3-fluorophenyl)[1,2,4]triazolo[1,5-c]quinazolin-5-yl]amino}azepan-2-one] | 6.39e-09 M
O=C1NCCCC[C@H]1Nc1nc2cccc(C(F)(F)F)c2c2nc(-c3cccc(F)c3)nn12 [Example 171, (3R)-3-{[2-(3-fluorophenyl)-10-(trifluoromethyl)[1,2,4]triazolo[1,5-c]quinazolin-5-yl]amino}azepan-2-one] | 6.2e-08 M
Cn1cc(-c2nc3c4c(C5CC5)cccc4nc(N[C@@H]4CCCCNC4=O)n3n2)cn1 [Example 177, (3R)-3-{[10-cyclopropyl-2-(1-methyl-1H-pyrazol-4-yl)[1,2,4]triazolo[1,5-c]quinazolin-5-yl]amino}azepan-2-one] | 7.35e-07 M
CCOc1ccccc1-c1nc2c3ccccc3nc(N[C@@H]3CCCCNC3=O)n2n1 [Example 198, (3R)-3-{[2-(2-ethoxyphenyl)[1,2,4]triazolo[1,5-c]quinazolin-5-yl]amino}azepan-2-one] | 1.82e-06 M
O=C1NCCCC[C@H]1Nc1nc2ccccc2c2nc(-c3ccc(F)cc3F)nn12 [Example 201, (3R)-3-{[2-(2,4-difluorophenyl)[1,2,4]triazolo[1,5-c]quinazolin-5-yl]amino}azepan-2-one] | 3.56e-10 M
Cn1cc(-c2nc3c4ccc(C(F)(F)F)cc4nc(N[C@@H]4CCCCNC4=O)n3n2)cn1 [Example 227, (3R)-3-{[2-(1-methyl-1H-pyrazol-4-yl)-8-(trifluoromethyl)[1,2,4]triazolo[1,5-c]quinazolin-5-yl]amino}azepan-2-one] | 2.65e-06 M
Cn1cc(-c2nc3c4ccc(Br)cc4nc(N[C@@H]4CCCCNC4=O)n3n2)cn1 [Example 230, (3R)-3-{[8-bromo-2-(1-methyl-1H-pyrazol-4-yl)[1,2,4]triazolo[1,5-c]quinazolin-5-yl]amino}azepan-2-one] | 1.97e-06 M
COc1ccc(-c2nc3c4ccc(C5CC5)cc4nc(N[C@@H]4CCCCNC4=O)n3n2)cc1 [Example 251, (3R)-3-{[8-Cyclopropyl-2-(4-methoxyphenyl)[1,2,4]triazolo[1,5-c]quinazolin-5-yl]amino}azepan-2-one] | 3.04e-07 M
COc1ccc(-c2nc3c4ccc(OC)cc4nc(N[C@@H]4CNCCNC4=O)n3n2)cc1 [Example 272, (6R)-6-{[8-methoxy-2-(4-methoxyphenyl)[1,2,4]triazolo[1,5-c]quinazolin-5-yl]amino}-1,4-diazepan-5-one] | 2.77e-06 M
CCCCNC(=O)CNc1nc2ccccc2c2nc(-c3cccc(OC(F)(F)F)c3)nn12 [Example 317, N-butyl-N^2-{2-[3-(trifluoromethoxy)phenyl][1,2,4]triazolo[1,5-c]quinazolin-5-yl}glycinamide] | 1.45e-07 M
CCCCC(Nc1nc2ccccc2c2nc(-c3cccc(OC(F)(F)F)c3)nn12)C(N)=O (stereo not drawn) [Example 323] | > 2e-05 M and 1.32e-05 M and 8.31e-06 M
Cc1sccc1-c1nc2c3ccccc3nc(N[C@@H]3CCCCNC3=O)n2n1 [Example 346, (3R)-3-{[2-(2-methylthiophen-3-yl)[1,2,4]triazolo[1,5-c]quinazolin-5-yl]amino}azepan-2-one] | 2.24e-09 M
Cc1cc(-c2nc3c4ccccc4nc(N[C@@H]4CCCCNC4=O)n3n2)cs1 [Example 352, (3R)-3-{[2-(5-methylthiophen-3-yl)[1,2,4]triazolo[1,5-c]quinazolin-5-yl]amino}azepan-2-one] | 9.72e-10 M
CCC[C@@H](Nc1nc2ccccc2c2nc(-c3csc(C)c3)nn12)C(=O)NC [Example 357, N-methyl-N^2-[2-(5-methylthiophen-3-yl)[1,2,4]triazolo[1,5-c]quinazolin-5-yl]-D-norvalinamide] | 1.35e-09 M
Cn1cc(-c2nc3c4cccc(C5(C(F)(F)F)CC5)c4nc(N[C@@H]4CNCCNC4=O)n3n2)cn1 [Example 430] | 3.22e-07 M
CC[C@@H](Nc1nc2ccccc2c2nc(-c3cccc(Br)c3)nn12)C(N)=O [Example 445, (2R)-2-{[2-(3-bromophenyl)[1,2,4]triazolo[1,5-c]quinazolin-5-yl]amino}butanamide] | 9.27e-08 M
CN(C)c1ccccc1-c1nc2c3ccccc3nc(N[C@@H]3CCCCNC3=O)n2n1 [Example 455, (3R)-3-({2-[2-(dimethylamino)phenyl][1,2,4]triazolo[1,5-c]quinazolin-5-yl}amino)azepan-2-one] | 1.17e-07 M
CN1CC[C@@H](Nc2nc3ccccc3c3nc(-c4ccccc4OC(F)(F)F)nn23)C1=O [Example 460, (3R)-1-methyl-3-({2-[2-(trifluoromethoxy)phenyl][1,2,4]triazolo[1,5-c]quinazolin-5-yl}amino)pyrrolidin-2-one] | 7.67e-08 M

Source: patent US20230113037A1 (Bayer Aktiengesellschaft, priority 2019, published 2023)
